Key:
Assay in all cases: BLI, immobilised aptamer
[1] = system: JD-3 (DNA, aptamer) ACTAGTGCAAATCTATTCCTATGTTACAGTGCCAATTTCA; conditions: 2.7 mM KCl, 1.5 mM KH2PO4, 0.1 M NaCl, 20 mM Na2HPO4, 0.6 mM MgCl2, 0.9 mM CaCl2; selection buffer, pH 7.4; BLI response below 0.1 nm
[2] = system: JD2-RM3-27C28T (DNA, aptamer) AAAAGACTTAGTGTTGTCCTATGTATCT; conditions: 2.7 mM KCl, 1.5 mM KH2PO4, 0.1 M NaCl, 20 mM Na2HPO4, 0.6 mM MgCl2, 0.9 mM CaCl2; selection buffer, pH 7.4; same concentration as AZA-2
[3] = system: JD-1 (DNA, aptamer) GAATGGACCCGGTATAATTCCCTCAAGAGTGCCAATTTCA; conditions: 2.7 mM KCl, 1.5 mM KH2PO4, 0.1 M NaCl, 20 mM Na2HPO4, 0.6 mM MgCl2, 0.9 mM CaCl2; selection buffer, pH 7.4; BLI response below 0.1 nm
[4] = system: JD3-RMM1 (DNA, aptamer) ACTAGGGCAAATCTATACAGTGCCAATTTCA; conditions: 2.7 mM KCl, 1.5 mM KH2PO4, 0.1 M NaCl, 20 mM Na2HPO4, 0.6 mM MgCl2, 0.9 mM CaCl2; selection buffer, pH 7.4; same concentration as AZA-2
[5] = system: JD-2 (DNA, aptamer) AAAAGACTTAGTGTTGTCCTATGTATAAGTGCCAATTTCA; conditions: 2.7 mM KCl, 1.5 mM KH2PO4, 0.1 M NaCl, 20 mM Na2HPO4, 0.6 mM MgCl2, 0.9 mM CaCl2; selection buffer, pH 7.4; BLI response below 0.1 nm

Measured: binding

C=C1[C@@H](O)[C@@H]2O[C@]3(CC[C@H](/C=C/[C@@H](C)[C@@H]4CC(C)=C[C@@]5(O[C@H](C[C@@](C)(O)C(=O)O)CC[C@H]5O)O4)O3)CC[C@H]2O[C@@H]1[C@@H](O)C[C@H](C)[C@H]1O[C@@]2(CCCCO2)CC[C@H]1C
no: all assays above

— publication PMC12112966 (2025)
